Consider 1 compound from patent US8889068B2, “Method for controlling microbial contamination, mineral suspensions obtained and uses thereof” (Omya International AG, priority 2005, dated 2014).

The experiment concerns bacteria/yeasts cocktail indicated in table 28. Put plainly: Disinfection test on simulated wagon washing water with Ca(OH)2. The experiment is classed as cell-based. Here is the method:
In order to simulate wagon washing water, a buffered kitchen salt solution was used, comprising 3% by weight of a suspension of calcium carbonate, taken from example 1.
The Ca(OH)2 was dissolved in a buffered solution of sterile phosphate at 0.85% by weight (PBS) and was mixed after 24 hours' storage at 30° C. with the bacteria/yeasts cocktail indicated in table 28.
The samples were incubated once more for 24 hours at 30° C. and then removed from the plates.
The germs which had grown were examined under an optical microscope.
A cocktail of bacteria (in PBS), firstly, and a bacteria/yeasts cocktail in (PBS), secondly, were mixed with Ca(OH)2, stored, and then removed from their moulds.
Tables 29 and 30 indicate the OH^− ion concentration (mole/l) and the yeast germ concentration (number/ml) measured in the samples, after 24-hours' incubation, for different initial concentrations of Ca(OH)2.
Samples 9 and 10 of initial Ca(OH)2 concentration equal to 1000 ppm were then removed from their mould at 30° C. on to a bacterial medium called a PCA (Plate Count Agar).
After 48 hours' incubation, the samples are once again removed from their moulds on to the same medium of type PCA.
For a part of sample 9, named 9-2, the OH^− ion concentration was reduced to a value of 5×10^−7 mole/l by the addition of gaseous CO2. […]

Regarding `[Ca+2].[OH-].[OH-]` [Ca(OH)2], the microbial germs result (curative mode, initial Ca(OH)2 1000 ppm, after 24 hours) is “less than 10 number/ml”. For the same compound, under “protective mode, initial Ca(OH)2 200 ppm, after 24 hours' incubation at 30° C.”, the microbial germs concentration is recorded as 1000 number/ml.
